Source: patent US20250179043A1, “PROCESSES FOR THE PREPARATION OF N-(1-METHYLCYCLOPROPYL)-2-(3-PYRIDINYL)-2H-INDAZOLE-4-CARBOXAMIDE AND INTERMEDIATES THEREOF” (FMC CORPORATION, priority 2022, published 2025)
Each block holds one compound with its values, some of them ahead of it.

Legend:
[1] = Stable polymorph form screen (slurry experiments, final form by XRPD); assay type: physicochemical; details: for Final form (XRPD Result): start Form A + minor Form B
Protocol: Slurry experiments were conducted to identify the stable form at various conditions. In these experiments, saturated solutions in various solvents containing excess undissolved solids (starting with Form A+minor Form B) were stirred for extended durations. Slurries at room temperature (RT) and 2-8° C. were typically conducted for approximately 2 weeks, while slurries at 72-73° C. were stirred for a shorter duration (1 day) to minimize the potential for decomposition. […] The results are shown in the table 12 where the time and temperatures are approximate.

[2] = Form A and Form B interconversion (competitive) slurries, final form by XRPD; assay type: physicochemical
Protocol: Relative thermodynamic stabilities of anhydrous/non-solvated Forms A and B were studied at 2-8° C., room temperature (RT) and at 71-72° C. via interconversion (competitive) slurries. In these slurries, a given solvent system was pre-saturated with compound 092 (Form A+minor Form B) at the stated temperature, and a portion of the liquid phase was filtered into a mixture of solids containing relatively equal amounts of Form A and Form B. Interconversion slurries at 2-8° C. and RT were allowed to stir for 22 days, while slurries at 71-72° C. stirred for shorter duration (2-4 days). […] The results are reported in table 13 below where: liquid phase for each slurry was pre-saturated using as-received Form A+minor Form B; solvent ratios are v/v; water activity values were calculated using UNIFAC calculator at RT; and times and temperatures are approximate.

Final form (XRPD Result) ([1]; slurry in DCM, RT, 13 d): Form A | Final form (XRPD Result) ([1]; slurry in DMF, RT, 13 d): Form A | Final form (XRPD Result) ([1]; slurry in EtOH, 72-73° C., 1 d): Form A | Final form (XRPD Result) ([1]; slurry in EtOH, RT, 13 d): Form A | Final form (XRPD Result) ([1]; slurry in IPA, RT, 13 d): Form A | Final form (XRPD Result) ([1]; slurry in MEK, 72-73° C., 1 d): Form A | Final form (XRPD Result) ([1]; slurry in MEK, RT, 13 d): Form A | Final form (XRPD Result) ([1]; slurry in MeOH, 2-8° C., 14 d): Form A | Final form (XRPD Result) ([1]; slurry in MeOH, RT, 13 d): Form A | Final form (XRPD Result) ([1]; slurry in acetone, RT, 13 d): Form A
Compound: CC1(NC(=O)c2cccc3nn(-c4cccnc4)cc23)CC1 [Compound 092, N-(1-methylcyclopropyl)-2-(3-pyridinyl)-2H-indazole 4-carboxamide]

Final form (XRPD Result) ([2]; competitive slurry in EtOH, 71-72° C., 2 d): Form A | Final form (XRPD Result) ([2]; competitive slurry in EtOH, RT, 22 d): Form A | Final form (XRPD Result) ([2]; competitive slurry in NMP/water 80:20 (aw 0.39), 2-8° C., 22 d): Form A | Final form (XRPD Result) ([2]; competitive slurry in NMP/water 80:20 (aw 0.39), 71-72° C., 2 d): Form A | Final form (XRPD Result) ([2]; competitive slurry in NMP/water 80:20 (aw 0.39), RT, 22 d): Form A
Compound: CC1(NC(=O)c2cccc3nn(-c4cccnc4)cc23)CC1 [Form A + Form B, N-(1-methylcyclopropyl)-2-(3-pyridinyl)-2H-indazole 4-carboxamide]

Relative stability of polymorph forms ([1]; between 2° C. and 73° C., from slurries): more stable than Form B | Relative thermodynamic stability of Forms A and B ([2]; between 2° C. and 72° C., from competitive slurries): thermodynamically stable form
Compound: CC1(NC(=O)c2cccc3nn(-c4cccnc4)cc23)CC1 [Form A, N-(1-methylcyclopropyl)-2-(3-pyridinyl)-2H-indazole 4-carboxamide]
